According to the METLIN SMRT retention time set (Domingo-Almenara et al. 2019):

assay: gradient 5% acetonitrile 3 min, to 50% in 2 min, to 85% in 15 min, held 3 min, 100 µL/min; details: column: Zorbax Extend-C18 2.1 x 50 mm; eluents: water / acetonitrile, 0.1% formic acid
Procedure, shortened: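 Mixtures of ~100 pure standards were chromatographed on a Zorbax Extend-C18 column (2.1 × 50 mm, 1.8 μm) at 100 μL/min using water and acetonitrile, each with 0.1% formic acid. Detection used a quadrupole time-of-flight mass spectrometer in positive and negative ionization mode, and data collection spanned 3 months. Retention time was obtained from adduct peaks picked computationally and each checked manually.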

SMILES	RP-LC retention time [s]
CCOC(=O)N1CCN(S(=O)(=O)c2ccc(C(=O)Nc3cc(C)no3)cc2)CC1	736
COc1ccc(NC(=O)N(Cc2nnc3n2CCCCC3)c2cccc(OC)c2)cc1	700
CNC(=O)c1cn(CC(C)C)c(=O)c2ccccc12	853
COCCCNC(=O)C1CCC(=O)N(c2ccc3c(c2)OCO3)C1c1ccc(OC)cc1 (stereo not given)	644
COCCN1C(=O)Cc2ccccc2C1C(=O)NCc1ccc(Cl)cc1 (stereo not given)	898
Cc1cc(C)c2c(CN3CCN(c4ccccn4)CC3)cc(=O)oc2c1	672
O=C(Nc1ccc(OCc2nnc(-c3ccccc3)o2)cc1)C1CCC1	878
CCOCCOC1CCN(S(=O)(=O)c2cccc(OC)c2)CC1	881
O=C(NC1(c2nc(-c3cccnc3)no2)CCCCC1)c1ccoc1	802
Cc1[nH]c(C(=O)N2CCN(c3ccccc3F)CC2)c(C)c1S(=O)(=O)N1CCC(C)CC1	1040
CCCN1CCN(CCCNC(=O)c2sc3ncccc3c2-n2cccc2)CC1	574
CCN(CC)c1nc2cc(C(=O)OC)ccc2c(=O)n1-c1ccc(C)cc1	1210
CCOc1ccc(S(=O)(=O)N2CCCC(C(=O)Nc3cccc(C)c3)C2)cc1 (stereo not given)	1050
COc1ccc(-c2nnc(-c3nc(NCc4ccc(C)o4)c4ccccc4n3)o2)cc1	985
O=C(c1ccc(OC(F)(F)F)cc1)N1C[C@@H]2C[C@H]1C[C@@H]2NS(=O)(=O)c1ccccc1	884
COCCN1C(=O)CCc2cc(NS(=O)(=O)c3cc(Cl)ccc3OC)ccc21	803
CCc1ccc(NC(=O)Cn2c(=O)cc(-c3nc(C4CC4)no3)c3ccccc32)cc1	1050
Cc1cc(C)n(-c2ccnc(N3CCC(C(=O)NC4CC4)CC3)n2)n1	693
COc1cc(NS(=O)(=O)c2ccc(-c3c(C)noc3C)cc2)cc(OC)c1	889
Fc1ccc(N2CCN(Cc3nc(-c4ccccc4)no3)CC2)cc1	964
Cc1ccc(S(=O)(=O)N2CCCC(CCC(=O)N3CCCCC3)C2)cc1 (stereo not given)	962
COc1ccc2[nH]cc(CCNC(=O)c3cccc(Cl)c3)c2c1	840
Cn1cc(CN2CCC(C(=O)N3CCN(c4ccccc4F)CC3)CC2)c2cc(Cl)ccc21	794

SMILES	RP-LC retention time [s]
Clc1ccc(-c2nc3cnccn3c2Nc2ccc3c(c2)OCO3)cc1	930
CCOC(=O)c1[nH]c(C)c(CCC(=O)N2CCC(C(=O)N3CCCCCC3)CC2)c1C	774
O=C(N[C@@H]1CN(Cc2ccccc2)C[C@H]1CO)C1(c2ccccc2)CC1	652
O=C(O)C(c1ccccc1)n1cnnn1 (stereo not given)	585
CC(C)c1cc(C(=O)NC2CC2)nc2cc(-c3ccccn3)nn12	819
O=C(c1ccccc1C(F)(F)F)N1CCc2nc(-c3ccc(F)cc3)ncc2C1	1020
CN(C)CCNC(=O)c1ccc(CS(=O)Cc2ccc(Cl)cc2)o1 (stereo not given)	604
CC(=O)Nc1nsc(N2CCC(C(=O)N3CCN(c4cccc(Cl)c4)CC3)CC2)n1	731
Cc1csc(-c2cc(S(=O)(=O)Nc3cc(Cl)ccc3F)cn2CC(=O)N2CCCC2)n1	924
Cc1ccc(C)c(CNS(=O)(=O)c2cc(-c3nc(C(C)(C)C)cs3)cs2)c1	1360
COc1ccc(S(=O)(=O)N2CCC(c3cnn(-c4ccc(C)cc4)c3)CC2)cc1	1110
O=C(CN1C(=O)C2CCCCN2c2ccc(S(=O)(=O)N3CCCC3)cc21)NCc1ccccn1 (stereo not given)	654
Cc1ccc(-c2noc(CSc3nc4cc5c(cc4c(=O)n3CC3CCCO3)OCO5)n2)cc1 (stereo not given)	1160
Cc1cc(C)cc(NC(=O)c2cc(C(C)C)n3nccc3n2)c1	1260
COc1ccc(OC)c(NC(=O)C2CCCN(c3ncnc4c3nc3n4CCCCC3)C2)c1 (stereo not given)	815
Cc1ccc(-c2nc(NCC3CCCO3)ncc2C(=O)O)cc1 (stereo not given)	735
Cc1cccc(OCCCn2c(CO)nc3ccccc32)c1	678
O=C(NC1CCCC1)C1CC(=O)N(CCc2c[nH]c3ccc(Cl)cc23)C1 (stereo not given)	769
COc1ccc(-c2cn3cccnc3n2)cc1NC(=O)c1cc(OC)c(OC)c(OC)c1	643
COc1ccc2c(c1)-c1nc(NC(=O)c3ccc(C)cc3)sc1CC2	1170
Cn1cnc(S(=O)(=O)N2CCC(Cc3nncn3Cc3ccccc3)CC2)c1	618
O=C(CC1=C2CCCCC2NC1=O)NCCc1c[nH]c2ccccc12 (stereo not given)	673
CNC(=O)Cc1ccc(NC(=O)NC2CCCCC2)cc1	642

SMILES	RP-LC retention time [s]
Cc1ncc2c(n1)C[C@@H]1CC[C@H]2N1C(=O)Nc1ccc(F)cc1F	649
COc1ccccc1NC(=O)Nc1cc(C(C)C)ccc1C	1160
Cc1ccc(C)c(NC(=O)C(=O)NCC(c2ccc3c(c2)CCCN3C)N2CCOCC2)c1 (stereo not given)	601
CC1=NS(=O)(=O)N(Cc2ccccc2)C=C1C(=O)OCc1noc(C2CCCCC2)n1	1110
CCOc1ccccc1NC(=O)Nc1ccc2c(c1)CCN2S(=O)(=O)c1ccccc1	1040
COc1ccc(-c2cc(C(=O)Nc3cc(Cl)ccc3C)no2)cc1	1150
COC(=O)C1=C(C)N(Cc2ccccc2)C(=O)NC1c1ccccc1[N+](=O)[O-] (stereo not given)	856
Cc1cc(C(=O)N2CCCCC2c2nncn2CC2CC2)nn1C (stereo not given)	629
COc1ccc(-c2ncc3c(n2)CCN(C(=O)Cc2ccccc2Cl)C3)cc1	989
CCCCN1CCN(C(=O)c2cc(NC(=O)C3CCC3)cc3nc(C)ccc23)CC1	551
O=C(c1ccc(F)c(F)c1)N1CCN(S(=O)(=O)c2cc3c4c(c2)CCC(=O)N4CCC3)CC1	807
CC(=O)N=c1sc(S(N)(=O)=O)nn1C	644
Cc1cc(N2CCN(C)CC2)nc2ccc(NC(=S)NC3CCCc4ccccc43)cc12 (stereo not given)	632
O=C(c1ccc2c(c1)OCO2)N1CCN(c2nc(CN3CCOCC3)cs2)CC1	596
COCCOC1CCN(S(=O)(=O)c2ccccc2C)CC1	810
COc1ccc(CSc2nccc3c2ccn3CC(=O)NCc2ccco2)cc1	686
CSc1ccc(NC(=O)C2c3ccccc3Oc3ccccc32)nn1	907
CCOc1ccc(C(=O)N2CCC3(C2)C(=O)Nc2ccc(OC)cc23)cc1 (stereo not given)	737
CC1(CNS(=O)(=O)c2ccc(F)cc2F)CCOCC1	779
CCOC(=O)c1c(C)c(C(=O)Nc2cccc(C)c2C)c(C)n1C	882
O=C(CCc1c(-c2ccccc2)nc2ccccn12)Nc1ccc(F)cc1F	666
COc1ccc(NS(=O)(=O)c2cc3c(s2)CCN(C(=O)C2CC2)C3)cc1OC	734
CCCOc1ccc(-c2cn3ccccc3n2)cc1[N+](=O)[O-]	681

SMILES	RP-LC retention time [s]
COc1ccccc1NC(=O)N1CCN(Cc2nc3cccnc3n2-c2ccccc2)CC1	661
COc1ccc(-c2nc(C)cc(C)c2CNC(=O)c2ccc(Br)o2)cc1	634
COC(=O)c1c(NCCc2ccccc2)c2cccc(Cl)c2[nH]c1=O	825
COc1ccc(CNc2nc(NCc3ccc(OC)cc3)c3ncn(C(C)C)c3n2)cc1	809
CCN1CCN(CCCNS(=O)(=O)c2cc(-c3nc(C)c(C)s3)sc2C)CC1	608
NC(=O)c1ccc(OCC(O)CN2CC=C(c3ccc(F)cc3)CC2)cc1 (stereo not given)	512
Cc1ccc(CNC(=O)c2ccc(-c3cncnc3)nc2)cc1C	782
COc1cc(-c2nnc(C)o2)ccc1C	828
Cc1cccc(NC(=O)N2CCCC2C(=O)NC2CC2)c1 (stereo not given)	655
CN1C2CC(OC(=O)[C@H](CO)c3ccccc3)CC1C1OC12 (stereo not given in full)	581
O=C(CC1COc2ccccc2NC1=O)NCCc1ccc(Cl)cc1 (stereo not given)	910
CCc1ccc(CNC(=O)CC2CCN(C(=O)c3[nH]c(C)c(C)c3C)CC2)cc1	898
Cc1cc2nc(C(=O)Nc3cc(F)cc(F)c3)cc(C)n2n1	1050
Cc1nnc2c(=O)n(CC(=O)NCC3CC3)c3cccnc3n12	610
Cc1ccc(CNC(=O)C2(C)CCCN(C(=O)Nc3ccc(Br)cc3)C2)cc1 (stereo not given)	1040
CN(C)CCNC(=O)C1CCCN(c2ccc(Sc3ccc(Br)cc3)nn2)C1 (stereo not given)	648
COc1ccc(C2C(C(=O)N3CCN(C)CC3)c3cc(OC)c(OC)cc3C(=O)N2C)cc1 (stereo not given)	640
CC(C)CC(=O)N1CCC2(CC1)C(=O)N(C)c1ccccc12	766
O=c1cc(CSc2nnc(-c3ccc4c(c3)OCO4)o2)nc2sccn12	727
O=C(Cc1cccc(F)c1)Nc1nnc(SCc2nnc(-c3ccccc3)o2)s1	873
O=C(Nc1ccc(F)cc1)C1CC(=O)N(CCc2c[nH]c3ccc(F)cc23)C1 (stereo not given)	785
